In PubChem BioAssay AID1259411 (Chemical Carcinogenesis Research Information System (CCRIS), 2018):
Activity calls are given as the source filed them. No rule for the calls is given here.

Tested on: rodent carcinogenicity bioassays, tumor incidence
Assay: CCRIS carcinogenicity studies
Procedure, shortened: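 Archive of carcinogenicity, mutagenicity, tumor promotion and tumor inhibition results drawn from journals, NCI reports and other sources, expert-reviewed; covers 1985-2011 and is no longer updated.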

Measured: carcinogen call

O=c1c(-c2ccc(O)cc2)coc2cc(O)cc(O)c12
inactive: Species: Rat, Strain/Sex: Sprague-Dawley/Female (50/Group), Route: Oral, Dose: During pregnancy, ingested doses for dams were ~0, 0.5, 9, and 45 mg/kg bw/day. During lactation, ingested doses for dam inactive; negative | Species: Rat, Strain/Sex: Sprague-Dawley/Female (50/Group), Route: Oral, Dose: During pregnancy, ingested doses for dams were ~0, 0.5, 9, and 45 mg/kg bw/day. During lactation, ingested doses for dam, Tumor Site: Type of Lesion: Mammary gland: adenoma and adenocarcinoma combined (13.2%, 16.3%, 22.0%, 26.0%) inactive; negative. positive trend but results do not reach statistical significance (ntp | Species: Rat, Strain/Sex: Sprague-Dawley/Female (50/Group), Route: Oral, Dose: During pregnancy, ingested doses for dams were ~0, 0.5, 9, and 45 mg/kg bw/day. During lactation, ingested doses for dam, Tumor Site: Type of Lesion: Mammary gland: adenoma and adenocarcinoma combined (16.7%, 8.0%, 16.0%, 32.7%) Pituitary gland: neoplasms (70.4%, 80.0% inactive; positive but at 2 lower doses, there was a negative trend for the mammary tumors | Species: Rat, Strain/Sex: Sprague-Dawley/Female (50/Group), Route: Oral, Dose: During pregnancy, ingested doses for dams were ~0, 0.5, 9, and 45 mg/kg bw/day. During lactation, ingested doses for dam, Tumor Site: Type of Lesion: Pituitary gland: adenoma and carcinoma combined (Overall rate 70.4%, 65.3%, 80.0%, 88.0%) inactive; negative (ntp describes as equivocal) | Species: Rat, Strain/Sex: Sprague-Dawley/Male (50/Group), Route: Oral, Dose: During pregnancy, ingested doses for dams were ~0, 0.5, 9, and 45 mg/kg bw/day. During lactation, ingested doses for dam inactive; negative

O=NN1CCCOC1
active: Species: RAT, Strain/Sex: F344/FEMALE, Route: ORAL, Dose: 40 MG/L IN DRINKING WATER FOR 50 WK, Tumor Site: Type of Lesion: LIVER: HEPATOCELLULAR CARCINOMA, HEMANGIOENDOTHELIAL SARCOMA active; positive

OC[C@H]1O[C@H](O[C@]2(CCl)O[C@H](CCl)[C@@H](O)[C@@H]2O)[C@H](O)[C@@H](O)[C@H]1Cl
inactive: Species: MOUSE, Strain/Sex: CD-1/FEMALE, Route: ORAL, Dose: 0, 3000, 10,000, 30,000 PPM IN DIET FOR 104 WK (STUDY DURATION: 104 WK), Dose: 0, 3000, 10,000, 30,000 PPM IN DIET FOR 104 WK (STUDY DURATION: 104 WK) inactive; negative | Species: MOUSE, Strain/Sex: CD-1/MALE, Route: ORAL, Dose: 0, 3000, 10,000, 30,000 PPM IN DIET FOR 104 WK (STUDY DURATION: 104 WK), Dose: 0, 3000, 10,000, 30,000 PPM IN DIET FOR 104 WK (STUDY DURATION: 104 WK) inactive; negative | Species: RAT, Strain/Sex: SPRAGUE-DAWLEY/FEMALE, Route: ORAL, Dose: 0, 0.3, 1.0, 3.0% IN DIET FOR 104 WK (STUDY DURATION: 104 WK), Dose: 0, 0.3, 1.0, 3.0% IN DIET FOR 104 WK (STUDY DURATION: 104 WK) inactive; negative | Species: RAT, Strain/Sex: SPRAGUE-DAWLEY/MALE, Route: ORAL, Dose: 0, 0.3, 1.0, 3.0% IN DIET FOR 104 WK (STUDY DURATION: 104 WK), Dose: 0, 0.3, 1.0, 3.0% IN DIET FOR 104 WK (STUDY DURATION: 104 WK) inactive; negative

Nc1ncc([N+](=O)[O-])s1
inactive: Species: MOUSE, Strain/Sex: B6C3F1/FEMALE, Route: ORAL, Dose: 0, 50, 100 PPM IN DIET, Dose: 0, 50, 100 PPM IN DIET inactive; negative | Species: MOUSE, Strain/Sex: B6C3F1/MALE, Route: ORAL, Dose: 0, 50, 100 PPM IN DIET, Dose: 0, 50, 100 PPM IN DIET inactive; negative | Species: RAT, Strain/Sex: F344/FEMALE, Route: ORAL, Dose: 0, 300, 600 PPM IN DIET, Dose: 0, 300, 600 PPM IN DIET inactive; negative

Oc1ccc2ccccc2c1N=Nc1ccccc1
inactive: Species: MOUSE, Strain/Sex: B6C3F1/MALE, Route: ORAL, Dose: 0, 500, 1000 PPM IN DIET, Dose: 0, 500, 1000 PPM IN DIET inactive; negative
active: Species: MOUSE, Route: SUBCUTANEOUS, Tumor Site: Type of Lesion: LIVER active; positive | Species: RAT, Strain/Sex: F344/FEMALE, Route: ORAL, Dose: 0, 250, 500 PPM IN DIET, Dose: 0, 250, 500 PPM IN DIET, Tumor Site: Type of Lesion: LIVER: NEOPLASTIC NODULE active; positive | Species: RAT, Strain/Sex: F344/MALE, Route: ORAL, Dose: O, 250, 500 PPM IN DIET, Dose: O, 250, 500 PPM IN DIET, Tumor Site: Type of Lesion: LIVER: NEOPLASTIC NODULE active; positive

CCCC[C@@H](C)[C@@H](OC(=O)C[C@@H](CC(=O)O)C(=O)O)[C@H](C[C@@H](C)C[C@H](O)CCCC[C@@H](O)C[C@H](O)[C@H](C)N)OC(=O)C[C@@H](CC(=O)O)C(=O)O
active: Species: MOUSE, Strain/Sex: B6C3F1/FEMALE, Route: ORAL, Dose: 0, 5, 15, 50, 80 PPM IN DIET FOR 104 WK (STUDY DURATION: 104 WK), Dose: 0, 5, 15, 50, 80 PPM IN DIET FOR 104 WK (STUDY DURATION: 104 WK), Tumor Site: Type of Lesion: LIVER: HEPATOCELLULAR ADENOMA, HEPATOCELLULAR CARCINOMA active; positive | Species: RAT, Strain/Sex: BDIX/MALE, Route: ORAL, Dose: 0, 50 MG/KG DIET FOR 26 MO (STUDY DURATION: 26 MO), Tumor Site: Type of Lesion: LIVER: HEPATOCELLULAR CARCINOMA active; positive | Species: RAT, Strain/Sex: F344/MALE, Route: ORAL, Dose: 0, 5, 15, 50, 150 PPM IN DIET FOR 104 WK (STUDY DURATION: 104 WK), Dose: 0, 5, 15, 50, 150 PPM IN DIET FOR 104 WK (STUDY DURATION: 104 WK), Tumor Site: Type of Lesion: KIDNEY: RENAL TUBULE ADENOMA, RENAL TUBULE CARCINOMA active; positive
inactive: Species: FISH, Strain/Sex: SHASTA RAINBOW TROUT/MALE,FEMALE, Route: ORAL, Dose: 0, 3.2, 23, 104 PPM IN DIET FOR 4 WK, RESUMED AFTER 2 WK FOR 30 WK (STUDY DURATION: 60 WK), Dose: 0, 3.2, 23, 104 PPM IN DIET FOR 4 WK, RESUMED AFTER 2 WK FOR 30 WK (STUDY DURATION: 60 WK) inactive; negative | Species: MOUSE, Strain/Sex: B6C3F1/MALE, Route: ORAL, Dose: 0, 5, 15, 80, 150 PPM IN DIET FOR 104 WK (STUDY DURATION: 104 WK), Dose: 0, 5, 15, 80, 150 PPM IN DIET FOR 104 WK (STUDY DURATION: 104 WK) inactive; negative | Species: RAT, Strain/Sex: BDIX/MALE,FEMALE, Route: ORAL, Dose: 0, 1, 10, 25 MG/KG DIET FOR 2 YR (STUDY DURATION: 2 YR), Dose: 0, 1, 10, 25 MG/KG DIET FOR 2 YR (STUDY DURATION: 2 YR) inactive; negative | Species: RAT, Strain/Sex: F344/FEMALE, Route: ORAL, Dose: 0, 5, 15, 50, 100 PPM IN DIET FOR 104 WK (STUDY DURATION: 104 WK), Dose: 0, 5, 15, 50, 100 PPM IN DIET FOR 104 WK (STUDY DURATION: 104 WK) inactive; negative

CCOC(=O)Nc1cccc(OC(=O)Nc2ccccc2)c1
inactive: Species: Mouse, Strain/Sex: NMRI/Female (50/Group), Route: Oral, Dose: 0, 30, 150, 750 ppm in diet for 104 wk, Dose: 0, 30, 150, 750 ppm in diet for 104 wk inactive; negative | Species: Mouse, Strain/Sex: NMRI/Male (50/Group), Route: Oral, Dose: 0, 30, 150, 750 ppm in diet for 104 wk, Dose: 0, 30, 150, 750 ppm in diet for 104 wk inactive; negative | Species: Rat, Strain/Sex: Wistar KFM-Han/Female (50/Group), Route: Oral, Dose: 0, 60, 300, 1500 ppm in diet for 2 yr, Dose: 0, 60, 300, 1500 ppm in diet for 2 yr inactive; negative | Species: Rat, Strain/Sex: Wistar KFM-Han/Male (50/Group), Route: Oral, Dose: 0, 60, 300, 1500 ppm in diet for 2 yr, Dose: 0, 60, 300, 1500 ppm in diet for 2 yr inactive; negative
